System: human corpus cavernosum tissue
Details: doses of 10 μM and 30 μM; compared with equimolar dose of dipyridamole; tissue contracted with phenylephrine 7×10^−7 M; 0% = phenylephrine contraction, −100% = tone after papaverine 10^−4 M; FIG. 40
Description: The tissue was maintained in a chilled Krebs-bicarbonate solution prior to assay. The tissue was cut into strips of 0.3×0.3×1 cm and suspended in organ chambers for isometric tension measurement. Tissues were incrementally stretched until optimal isometric tension for contraction was obtained. […] At the end of the experiment papaverine (10^−4 M) is added to obtain maximal relaxation. […] Data are expressed as the percent loss in tone from the phenylephrine-induced contraction (0% =phenylephrine contraction; −100%=tone after the administration of papaverine).

In the case of `CC(C)(CC(=O)OCCN(CCOC(=O)CC(C)(C)SN=O)c1nc(N2CCCCC2)c2nc(N(CCOC(=O)CC(C)(C)SN=O)CCOC(=O)CC(C)(C)SN=O)nc(N3CCCCC3)c2n1)SN=O` [Example 1, 2.6-bis(diethyl(3-methyl-3(nitrosothiol)butyric acid ester)amino)-4.8-dipipendinopyrimido-[5,4d]-pyrimidine], the “relaxation of the phenylephrine-induced contraction (percent loss in tone from the phenylephrine-induced contraction)” value is reported as “more efficacious”.

— patent publication US20030158184A1, “Nitrosated and nitrosylated phosphodiesterase inhibitor compounds, compositions and their uses” (priority 2001, published 2003)
